Assay results reported in patent US20250288572A1, “COMPOSITIONS AND METHODS FOR TREATING PULMONARY VASCULAR DISEASE” (UNIVERSITY OF PITTSBURGH-OF THE COMMONWEALTH SYSTEM OF …, priority 2022, published 2025).
“Also recorded” adds a separate entry of the source.

How the values were obtained:
PAECs [1] = assay: Cellular apoptosis, caspase-3/7 activity (Caspase-Glo 3/7) in PAECs; assay type: cell-based, human
Protocol: The hypoxia chamber (modular incubator chamber) was obtained from Billups-Rothenberg Inc. (Del Mar, Cali) and placed in regulated CO2 incubator at 37° C.
(§1) Cellular apoptosis: Caspase-3/7 activity was quantified using the Caspase-Glo 3/7 Assay (Promega), according to manufacturer's instructions. Caspase-3/7 activity was normalized to total protein content determined by BCA method (Thermo Fisher Scientific).

[2] = tested on: SU5416-hypoxic pulmonary arterial hypertension rats; assay: SU5416-hypoxia pulmonary arterial hypertension rat model, disease-reversal dosing; assay type: in vivo, Sprague-Dawley rats
Protocol: Briefly, 10 week old male Sprague-Dawley rats were injected i.p. with 20 mg/kg of SU5416 (Sigma), placed in normobaric hypoxia (10% 02) for 3 weeks and then transferred to normoxia for 2 weeks. During hypoxic exposure, chambers were opened twice a week for cleaning and replenishment of food and water. […] For BRD2889 vs. vehicle control dosing, i.p. injections every 5 days (5 mg/kg) were administered during the final two weeks of normoxia. Oxygen concentrations were continuously monitored with blood gas analyzers.
(§2) Measurement of GST activity: The GST activity from lung tissue and PAECs was assayed using GST assay kit (Cayman, MI, USA) per the manufacturer's instructions.
Rodent echocardiography: Echocardiography was performed using a 15-45M Hz transthoracic transducer and a Visual Sonics Vevo 3100 system (Fujifilm). Inhaled isoflurane anesthesia was used at 2% in 100% 02 during positioning and hair removal and then decreased to isoflurane 0.8% during imaging.

[3] = tested on: monocrotaline-exposed pulmonary arterial hypertension rats; assay: Monocrotaline (MCT) pulmonary arterial hypertension rat model, dosing Days 12-26
Protocol: as §2

[4] = tested on: glutathione S-transferase (GST); assay: Measurement of GST activity in PAECs; assay type: cell-based, human
Protocol: (§3) BRD2889 (1 uM) vs. vehicle control were added, as indicated, and placed into a hypoxia chamber for 24 h. The hypoxia chamber (modular incubator chamber) was obtained from Billups-Rothenberg Inc. (Del Mar, Cali) and placed in regulated CO2 incubator at 37° C.

mitochondrial Complex 1 [5] = assay: Mitochondrial Complex 1 activity in PAECs; assay type: cell-based, human
Protocol: (§4) Measurement of mitochondrial complex activities: Complex 1 activity of isolated mitochondria were measured using Complex 1 Enzyme Activity Microplate assay kit (Abcam, ab109721) according to the manufacturer's protocol. These enzymes were captured within the wells of the microplate coated by the corresponding complex enzyme antibody, and activities were detected colorimetrically.

PAECs [6] = assay: BrdU growth (proliferation) assay in PAECs; assay type: cell-based, human
Protocol: (§5) BrdU growth assay: Cell proliferation was assayed relative to day 0 using a BrdU Cell Proliferation Assay Kit (#6813, Cell Signaling) according to the manufacturer's protocol after incubation for 2 h with BrdU.

ISCU = assay: Immunoprecipitation/immunoblot of glutathionylated ISCU in PAECs; assay type: cell-based, human; set-up: dose or concentration left out as unconfirmed; details: hypoxic PAECs, BRD2889 (24 h)
Protocol: Immunoblot and densitometry: Cells were lysed in RIPA buffer (Sigma) along with 1× protease inhibitor cocktail (Sigma). Protein lysate was resolved by gradient 4%-15% SDS-PAGE gels and transferred onto a 0.2 μm PVDF membrane (Bio-Rad). Membranes were blocked in 5% non-fat milk in 1×PBST buffer for one hour at room temperature. Later, they were incubated in the presence of the primary antibody overnight at 4° C., and then appropriate HRP-conjugated secondary antibodies (Life Technologies). The following antibodies were used: human LGALS8 (AF1305, RnD Systems), mouse/rat Lgals8 ([…], Abcam), pSTAT1 (ab29045, Abcam) and STAT1 (ab47425, Abcam), GSTP1 (ab153949, Abcam), ISCU (14812-1-AP, Pointech), Glutathione (ab19534, Abcam), HIF2A (NB100-122, Novous), α-Tubulin (CP06, Millipore sigma), and ACTB (sc-47778, Santa Cruz). […] The images were later quantified using AlphaEaseFC software (Alpha Innotech).
Immunoprecipitation: PAECs were transfected with the indicated combinations of siRNAs by Lipofectamine 2000 (Thermo Fisher Scientific) according to the manufacturer's instructions and/or treated with BRD2889 ([…], 24 h). […] After extensive washing, the immunoprecipitated proteins were analyzed by immunoblotting with the indicated antibodies.

[7] = tested on: glutathione S-transferase (GST); assay: Measurement of GST activity in PASMCs; assay type: cell-based, human; details: IL-6/sIL-6R + hypoxia, BRD2889 1 uM
Protocol: as §3

mitochondrial Complex 1 [8] = assay: Mitochondrial Complex 1 activity in PASMCs; assay type: cell-based, human; details: IL-6/sIL-6R + hypoxia
Protocol: as §3, §4

PASMCs [9] = assay: BrdU proliferation in PASMCs; assay type: cell-based, human; details: IL-6/sIL-6R + hypoxia
Protocol: as §3, §5

PASMCs [10] = assay: Apoptosis (caspase 3/7) in PASMCs; assay type: cell-based, human; details: IL-6/sIL-6R + hypoxia
Protocol: as §3, §1

[11] = hypoxic PAECs with siRNA knockdown of ISCU
[12] = SU5416-hypoxia rats, vs vehicle control
[13] = SU5416-hypoxia rats, I-BET762 30 mg/kg daily i.p. or BRD2889 5 mg/kg i.p. every 5 days, final 2 weeks
[14] = I-BET762 30 mg/kg daily i.p. or BRD2889 5 mg/kg i.p. every 5 days, Days 12-26

COc1ccc(C#CC2CCCN(C(=O)/C=C/c3cc(OC)c(OC)c(OC)c3)C2=O)cc1 (stereo not drawn) [BRD2889, (E)-3-((4-methoxyphenyl)ethynyl)-1-(3-(3,4,5-trimethoxyphenyl)acryloyl)piperidin-2-one] was tested, and the “apoptosis (caspase 3/7 activity)” value (PAECs [1]; PAECs, IL-6/sIL-6R + hypoxia) was “reduced apoptosis; also recorded: reversing”, the “apoptosis (caspase 3/7 activity)” value (PAECs [1]; [11]) was “did not reverse the hypoxic increase” and the “apoptosis (caspase 3/7 activity)” value (PAECs [1]; hypoxic PAECs, BRD2889) was “reversed the increase in apoptosis; also recorded: reversed hypoxic alterations”. The “aortic blood pressure (mean arterial pressure, MAP)” value [2, 12] was “without significant alterations”, the heart rate [2, 12] was “without significant alterations” and the “left ventricular function (LVPW thickness, LVEF, LVFS; echocardiography)” value [2, 12] was “no alteration of left ventricular function; also recorded: did not exhibit altered left ventricular function”. The “endothelial ISCU (immunofluorescence)” value ([2]; SU5416-hypoxia rats, BRD2889 5 mg/kg i.p. every 5 days) was “increased”, the “lung GST activity” value ([2]; SU5416-hypoxia rats, BRD2889 5 mg/kg i.p. every 5 days, 5 mg/kg) was “reduced; also recorded: decreased” and the “transcript levels of injury markers of liver (Got, Gpt1) and kidney (Cst3, Lcn2), tissue toxicity” value ([2]; SU5416-hypoxia rats, BRD2889 vs VC, RT-qPCR) was “no indication of overt tissue toxicities”. The “Fulton index (RV/LV+S)” value [2, 13] was “reducing; also recorded: reduced”, the “arteriolar muscularization (α-SMA)” value [2, 13] was “reducing; also recorded: reduced” and the “cleaved caspase-3 (CC-3), endothelial apoptosis” value [2, 13] was “reducing; also recorded: decreased”. For the same molecule, the “right ventricular systolic pressure (RVSP)” value [2, 13] was “reducing; also recorded: reduced”, the ascites ([2]; three SU5416-hypoxic rats treated with drug) was “accumulation of mild ascites” and the “endothelial ISCU (immunofluorescence)” value ([3]; BRD2889 5 mg/kg i.p. every 5 days) was “increased”. For the same molecule, the “lung GST activity” value ([3]; BRD2889 5 mg/kg i.p. every 5 days, 5 mg/kg) was “reduced; also recorded: decreased”, the “transcript levels of injury markers of liver (Got, Gpt1), kidney (Cst3, Lcn2), intestines (Ldha), tissue toxicity” value ([3]; BRD2889 vs VC, RT-qPCR) was “no indication of overt tissue toxicities” and the “Fulton index (RV/LV+S)” value [3, 14] was “reducing; also recorded: reduced”. The “arteriolar muscularization (α-SMA)” value [3, 14] was “reducing; also recorded: reduced”, the “cleaved caspase-3 (CC-3), endothelial apoptosis” value [3, 14] was “reducing; also recorded: decreased” and the “right ventricular systolic pressure (RVSP)” value [3, 14] was “reducing; also recorded: reduced”. For the same molecule, the “aortic blood pressure (mean arterial pressure, MAP)” value ([3]; vs vehicle control) was “without significant alterations”, the heart rate ([3]; vs vehicle control) was “without significant alterations” and the GST activity ([4]; PAECs, IL-6/sIL-6R + hypoxia, BRD2889 1 uM) was “reversed the increase in GSTP1 activity; also recorded: reversed the IL-6/R+ hypoxia-mediated increase”. The GST enzyme activity ([4]; hypoxic PAECs) was “reduced the hypoxic increase in GST enzyme activity; also recorded: reversed hypoxic alterations”, the “mitochondrial Complex 1 activity” value (mitochondrial Complex 1 [5]; PAECs, IL-6/sIL-6R + hypoxia) was “partially rescued mitochondrial Complex 1 activity; also recorded: reversing the IL-6/R+hypoxia-mediated decrease” and the “mitochondrial Complex 1 activity” value (mitochondrial Complex 1 [5]; hypoxic PAECs) was “reversed the decrease; also recorded: reversed hypoxic alterations”. The “mitochondrial Complex 1 activity” value (mitochondrial Complex 1 [5]; [11]) was “did not reverse the hypoxia-induced decrease”, the “proliferation (BrdU incorporation)” value (PAECs [6]; PAECs, IL-6/sIL-6R + hypoxia) was “increased proliferation; also recorded: reversing” and the “proliferation (BrdU incorporation)” value (PAECs [6]; hypoxic PAECs) was “reversed the decrease; also recorded: reversed hypoxic alterations”. The “proliferation (BrdU incorporation)” value (PAECs [6]; [11]) was “did not reverse the hypoxia-induced decrease”, the “ISCU glutathionylation (α-GSH immunoblot after α-ISCU pulldown)” value (ISCU) was “converse reduction of glutathionylation; also recorded: reversed these findings; also recorded: reversal of the hypoxic induction of ISCU glutathionylation” and the GST activity [7] was “failed to rescue ISCU or alter GST activity; also recorded: did not affect”. The “mitochondrial Complex 1 activity” value (mitochondrial Complex 1 [8]) was “did not affect”, the proliferation (PASMCs [9]) was “did not affect” and the apoptosis (PASMCs [10]) was “only subtly changed”.
